{"source": "patent US12459974B2", "about": "“Bicyclic peptide ligands specific for Nectin-4” (priority 2018, dated 2025)", "key": {"HCT116 xenograft": {"system": "HCT116 xenograft", "test": "Example 9.2: in vivo efficacy in HCT116 xenograft in Balb/c nude mice", "parameters": "species or system Mus Musculus", "conditions": "for TGI / Tumor volume (TV) / Tumor volume / T/C: day 14; for Tumor volume trace over time / Tumor volume: mean ± SEM; for T/C: treated/control group average tumor volume"}, "MDA-MB-468 xenograft": {"system": "MDA-MB-468 xenograft", "test": "Example 9.9: in vivo efficacy of BCY8245 alone or with BCY8234 in MDA-MB-468 xenograft (large tumors) in Balb/c nude mice", "parameters": "species or system Mus Musculus"}, "[1]": {"conditions": "3 mg/kg qw in combination with BCY8234 300 mg/kg qw, day 28"}}, "note": "*1 amine or outer side, *2 acyl side, *3 side chain or, on linkers, in order; H or OH if unused. Where a SMILES comes first, the peptide text is derived from it. Bridges are numbered along the chain shown (N, C = ends). Roman numbers before positions name the chains, in order. [ ]: non-standard residue; d: D form. The star is where a group is joined. ξ: configuration not given here. TATA = O=C(CC[*:1])N1CN(C(=O)CC[*:2])CN(C(=O)CC[*:3])C1; Dolaproine = CO[C@@H]([C@@H]1CCCN1)[C@@H](C)C(=O)O; X1 = CC[C@H](C)C(C(CC(=O)[*:2])OC)N(C)[*:1]; 1Nal = N[C@@H](Cc1cccc2ccccc12)C(=O)O; X3 = O=C(CCCC(=O)[*:2])NCCC(=O)[*:1]; PABC = O=C(OCc1ccc(N[*:1])cc1)[*:2]; Hyp = O=C(O)[C@@H]1C[C@@H](O)CN1; hArg = N=C(N)NCCCC[C@H](N)C(=O)O; Cit = NC(=O)NCCC[C@H](N)C(=O)O; X2 = CC(N*)[C@@H](O)c1ccccc1; ξNMeV = CNC(C(=O)O)C(C)C; ξV = CC(C)C(N)C(=O)O; Sar = CNCC(=O)O", "data": [{"smiles": "CC[C@H](C)C(C(CC(=O)N1CCC[C@H]1[C@H](OC)[C@@H](C)C(=O)NC(C)[C@@H](O)c1ccccc1)OC)N(C)C(=O)[C@@H](NC(=O)C(C(C)C)N(C)C(=O)OCc1ccc(NC(=O)[C@H](CCCNC(N)=O)NC(=O)C(NC(=O)CCCC(=O)NCCC(=O)N(C)CC(=O)N(C)CC(=O)N(C)CC(=O)N(C)CC(=O)N(C)CC(=O)N(C)CC(=O)N(C)CC(=O)N(C)CC(=O)N(C)CC(=O)N(C)CC(=O)N[C@H]2CSCCC(=O)N3CN4CN(C3)C(=O)CCSC[C@H](NC(=O)[C@@H](CC(=O)O)NC(=O)[C@H](Cc3cccc5ccccc35)NC(=O)[C@@H]3CCCN3C2=O)C(=O)N[C@@H](CCSC)C(=O)N[C@@H](CCCCNC(=N)N)C(=O)N[C@@H](CC(=O)O)C(=O)N[C@@H](Cc2c[nH]c3ccccc23)C(=O)N[C@@H](CO)C(=O)N[C@@H]([C@@H](C)O)C(=O)N2CCC[C@H]2C(=O)N2C[C@H](O)C[C@H]2C(=O)N[C@@H](Cc2c[nH]c3ccccc23)C(=O)N[C@H](C(N)=O)CSCCC4=O)C(C)C)cc1)C(C)C", "note": "(stereo partly drawn) [BCY8245, MMAE-PABC-Cit-Val-Glutaryl-BCY8234] (I: [Sar][Sar][Sar][Sar][Sar][Sar][Sar][Sar][Sar][Sar]CP[1Nal][dD]CM[hArg]DWSTP[Hyp]WC-NH2 / II: [ξV][Cit][PABC][ξNMeV]V[X1][Dolaproine]-X2; linker I:11-I:15-I:25 via TATA; linker I:N-II:N via X3)", "values": [{"measurement": "TGI", "setting": "HCT116 xenograft; 3 mg/kg biw", "result": 94.9, "unit": "%"}, {"measurement": "Tumor volume (TV)", "setting": "HCT116 xenograft; 3 mg/kg biw", "result": 197, "unit": "mm^3"}, {"measurement": "TGI", "setting": "HCT116 xenograft; 3 mg/kg qw", "result": 57.1, "unit": "%"}, {"measurement": "Tumor volume (TV)", "setting": "HCT116 xenograft; 3 mg/kg qw", "result": 425, "unit": "mm^3"}, {"measurement": "TGI", "setting": "HCT116 xenograft; 5 mg/kg qw", "result": 105.2, "unit": "%"}, {"measurement": "Tumor volume (TV)", "setting": "HCT116 xenograft; 5 mg/kg qw", "result": 134, "unit": "mm^3"}, {"measurement": "Tumor volume trace over time", "setting": "HCT116 xenograft; 3 mpk, biw, iv, day 0 after the start of treatment", "result": "166 ± 18", "unit": "mm^3"}, {"measurement": "Tumor volume trace over time", "setting": "HCT116 xenograft; 3 mpk, biw, iv, day 2 after the start of treatment", "result": "229 ± 40", "unit": "mm^3"}, {"measurement": "Tumor volume trace over time", "setting": "HCT116 xenograft; 3 mpk, biw, iv, day 4 after the start of treatment", "result": "215 ± 42", "unit": "mm^3"}, {"measurement": "Tumor volume trace over time", "setting": "HCT116 xenograft; 3 mpk, biw, iv, day 7 after the start of treatment", "result": "213 ± 49", "unit": "mm^3"}, {"measurement": "Tumor volume trace over time", "setting": "HCT116 xenograft; 3 mpk, biw, iv, day 9 after the start of treatment", "result": "213 ± 48", "unit": "mm^3"}, {"measurement": "Tumor volume trace over time", "setting": "HCT116 xenograft; 3 mpk, biw, iv, day 12 after the start of treatment", "result": "206 ± 55", "unit": "mm^3"}, {"measurement": "TGI", "setting": "HCT116 xenograft; 3 mpk, biw, iv", "result": 94.9, "unit": "%"}, {"measurement": "Tumor volume", "setting": "HCT116 xenograft; 3 mpk, biw, iv", "result": "197 ± 50", "unit": "mm^3"}, {"measurement": "T/C", "setting": "HCT116 xenograft; 3 mpk, biw, iv", "result": 25.6, "unit": "%"}, {"measurement": "Tumor volume trace over time", "setting": "HCT116 xenograft; 3 mpk, biw, iv, day 14 after the start of treatment", "result": "197 ± 50", "unit": "mm^3"}, {"measurement": "Tumor volume trace over time", "setting": "HCT116 xenograft; 3 mpk, qw, iv, day 0 after the start of treatment", "result": "167 ± 11", "unit": "mm^3"}, {"measurement": "Tumor volume trace over time", "setting": "HCT116 xenograft; 3 mpk, qw, iv, day 2 after the start of treatment", "result": "209 ± 13", "unit": "mm^3"}, {"measurement": "Tumor volume trace over time", "setting": "HCT116 xenograft; 3 mpk, qw, iv, day 4 after the start of treatment", "result": "227 ± 17", "unit": "mm^3"}, {"measurement": "Tumor volume trace over time", "setting": "HCT116 xenograft; 3 mpk, qw, iv, day 7 after the start of treatment", "result": "269 ± 33", "unit": "mm^3"}, {"measurement": "Tumor volume trace over time", "setting": "HCT116 xenograft; 3 mpk, qw, iv, day 9 after the start of treatment", "result": "324 ± 39", "unit": "mm^3"}, {"measurement": "Tumor volume trace over time", "setting": "HCT116 xenograft; 3 mpk, qw, iv, day 12 after the start of treatment", "result": "348 ± 27", "unit": "mm^3"}, {"measurement": "TGI", "setting": "HCT116 xenograft; 3 mpk, qw, iv", "result": 57.1, "unit": "%"}, {"measurement": "Tumor volume", "setting": "HCT116 xenograft; 3 mpk, qw, iv", "result": "425 ± 28", "unit": "mm^3"}, {"measurement": "T/C", "setting": "HCT116 xenograft; 3 mpk, qw, iv", "result": 55.2, "unit": "%"}, {"measurement": "Tumor volume trace over time", "setting": "HCT116 xenograft; 3 mpk, qw, iv, day 14 after the start of treatment", "result": "425 ± 28", "unit": "mm^3"}, {"measurement": "Tumor volume trace over time", "setting": "HCT116 xenograft; 5 mpk, qw, iv, day 0 after the start of treatment", "result": "166 ± 35", "unit": "mm^3"}, {"measurement": "Tumor volume trace over time", "setting": "HCT116 xenograft; 5 mpk, qw, iv, day 2 after the start of treatment", "result": "201 ± 42", "unit": "mm^3"}, {"measurement": "Tumor volume trace over time", "setting": "HCT116 xenograft; 5 mpk, qw, iv, day 4 after the start of treatment", "result": "176 ± 15", "unit": "mm^3"}, {"measurement": "Tumor volume trace over time", "setting": "HCT116 xenograft; 5 mpk, qw, iv, day 7 after the start of treatment", "result": "183 ± 17", "unit": "mm^3"}, {"measurement": "Tumor volume trace over time", "setting": "HCT116 xenograft; 5 mpk, qw, iv, day 9 after the start of treatment", "result": "170 ± 16", "unit": "mm^3"}, {"measurement": "Tumor volume trace over time", "setting": "HCT116 xenograft; 5 mpk, qw, iv, day 12 after the start of treatment", "result": "125 ± 18", "unit": "mm^3"}, {"measurement": "TGI", "setting": "HCT116 xenograft; 5 mpk, qw, iv", "result": 105.2, "unit": "%"}, {"measurement": "Tumor volume", "setting": "HCT116 xenograft; 5 mpk, qw, iv", "result": "134 ± 12", "unit": "mm^3"}, {"measurement": "T/C", "setting": "HCT116 xenograft; 5 mpk, qw, iv", "result": 17.4, "unit": "%"}, {"measurement": "Tumor volume trace over time", "setting": "HCT116 xenograft; 5 mpk, qw, iv, day 14 after the start of treatment", "result": "134 ± 12", "unit": "mm^3"}, {"measurement": "tumor response (in words)", "setting": "HCT116 xenograft; mouse, in vivo", "result": "tumor growth is restrained by BCY8245 but the tumor does not undergo regression"}, {"measurement": "TGI", "setting": "MDA-MB-468 xenograft; 1 mg/kg qw, day 28", "result": 126.6, "unit": "%"}, {"measurement": "Tumor volume (TV)", "setting": "MDA-MB-468 xenograft; 1 mg/kg qw, day 28", "result": 384, "unit": "mm^3"}, {"measurement": "TGI", "setting": "MDA-MB-468 xenograft; [1]", "result": 234.0, "unit": "%"}, {"measurement": "Tumor volume (TV)", "setting": "MDA-MB-468 xenograft; [1]", "result": 55, "unit": "mm^3"}, {"measurement": "tumor relapse (in words)", "setting": "MDA-MB-468 xenograft; 3 mg/kg qw in combination with BCY8234 300 mg/kg qw, whole monitoring schedule", "result": "didn't showed any relapse"}, {"measurement": "tumor relapse (in words)", "setting": "MDA-MB-468 xenograft; 3 mg/kg qw, after ceasing the treatment", "result": "some tumor relapse"}, {"measurement": "TGI", "setting": "MDA-MB-468 xenograft; 3 mg/kg qw, day 28", "result": 234.6, "unit": "%"}, {"measurement": "Tumor volume (TV)", "setting": "MDA-MB-468 xenograft; 3 mg/kg qw, day 28", "result": 50, "unit": "mm^3"}, {"measurement": "Tumor volume", "setting": "MDA-MB-468 xenograft; 1 mpk, qw, day 0 after the start of treatment", "result": 466, "unit": "mm^3"}, {"measurement": "Tumor volume", "setting": "MDA-MB-468 xenograft; 1 mpk, qw, day 2", "result": 480, "unit": "mm^3"}, {"measurement": "Tumor volume", "setting": "MDA-MB-468 xenograft; 1 mpk, qw, day 5", "result": 453, "unit": "mm^3"}, {"measurement": "Tumor volume", "setting": "MDA-MB-468 xenograft; 1 mpk, qw, day 7", "result": 474, "unit": "mm^3"}, {"measurement": "Tumor volume", "setting": "MDA-MB-468 xenograft; 1 mpk, qw, day 9", "result": 446, "unit": "mm^3"}, {"measurement": "Tumor volume", "setting": "MDA-MB-468 xenograft; 1 mpk, qw, day 12", "result": 461, "unit": "mm^3"}, {"measurement": "Tumor volume", "setting": "MDA-MB-468 xenograft; 1 mpk, qw, day 14", "result": 460, "unit": "mm^3"}, {"measurement": "Tumor volume", "setting": "MDA-MB-468 xenograft; 1 mpk, qw, day 16", "result": 433, "unit": "mm^3"}, {"measurement": "Tumor volume", "setting": "MDA-MB-468 xenograft; 1 mpk, qw, day 19", "result": 412, "unit": "mm^3"}, {"measurement": "Tumor volume", "setting": "MDA-MB-468 xenograft; 1 mpk, qw, day 21", "result": 430, "unit": "mm^3"}, {"measurement": "Tumor volume", "setting": "MDA-MB-468 xenograft; 1 mpk, qw, day 23", "result": 421, "unit": "mm^3"}, {"measurement": "Tumor volume", "setting": "MDA-MB-468 xenograft; 1 mpk, qw, day 26", "result": 382, "unit": "mm^3"}, {"measurement": "T/C", "setting": "MDA-MB-468 xenograft; 1 mpk, qw, day 28", "result": 49.7, "unit": "%"}]}]}
